Entries after “also recorded” stand apart in the source; their conditions may differ.

These results are taken from patent US10378059B2, “Methods and molecular pharmacodynamic biomarkers for multiple signaling pathways in response to carboxyamidotriazole orotate” (TACTICAL THERAPEUTICS, INC., priority 2013, dated 2019).

Series [1] concerns early growth response 1 gene product (EGR1). Briefly: Plucked hair assay, EGR1 expression. Particulars: for EGR1 regulation: BEZ235 and Tarceva 1 μM, 24 hr. It counts as cell-based, human.
Experimental: Donor hairs were plucked from 5 male donor volunteers, immediately transferred to maintenance medium cultures and exposed to varying doses of CTO equivalent to 2 M, 5 μM, and 10 μM carboxyamidotriazole (CAI). The cultures were either maintained for 8 hrs or 24 hrs. Controls were used, for example, Tarceva®. (EGFR inhibitor) at 1 μM and BEZ235 (PI3K inhibitor) at 1 μM for 24 hrs only. Once in culture hairs were collected at the specified periods for mRNA isolation or protein analysis to ensure quality control. Small amounts of RNA (about up to 500 ng) are extracted from the bulbs at the end of the anagen hairs. Representative cDNA was prepared from the RNA and gene expression levels determined by microarray analysis. Biotin labeling, fragmentation and hybridization to 048 Affymetrix U133 plus 2.0 array was done. Bioinformatic analysis was done to identify CTO induced gene expression changes.
The subject of series [2] is carcinoembryonic antigen-related cell adhesion molecule (CEACAM1). Briefly: Plucked hair assay, CEACAM1 expression. The format is cell-based, human. Here is the method:
(§1) Donor hairs were plucked from 5 male donor volunteers, immediately transferred to maintenance medium cultures and exposed to varying doses of CTO equivalent to […], 5 μM, and 10 μM carboxyamidotriazole (CAI). The cultures were either maintained for 8 hrs or 24 hrs. Controls were used, for example, Tarceva®. (EGFR inhibitor) at 1 μM and BEZ235 (PI3K inhibitor) at 1 μM for 24 hrs only. Once in culture hairs were collected at the specified periods for mRNA isolation or protein analysis to ensure quality control. Small amounts of RNA (about up to 500 ng) are extracted from the bulbs at the end of the anagen hairs. Representative cDNA was prepared from the RNA and gene expression levels determined by microarray analysis. Biotin labeling, fragmentation and hybridization to 048 Affymetrix U133 plus 2.0 array was done. Bioinformatic analysis was done to identify CTO induced gene expression changes.

Series [3] relates to ex vivo cultured human anagen hairs. The experiment in a line: Plucked hair biomarker platform: global transcriptional response by microarray (probe list, Table 1). As to conditions: for transcriptional response (differential probes): CTO equivalent to 2, 5, 10 μM CAI, 8 hr and 24 hr, BEZ235 and Tarceva 1 μM, 24 hr.
The next series has as its system PI3K pathway. The experiment in a line: Plucked hair assay, PI3K Signature Score. The format is cell-based, human. As to conditions: CTO 8 hr and 24 hr; BEZ235 1 μM 24 hr. As for the experimental part:
as §1, with “Bioinformatic analysis was done to identify CTO induced gene expression changes.” left out

A further series has as its system PI3K/mTOR pathway. The experiment in a line: Plucked hair assay, PI3K/mTOR Signature Score. The format is cell-based, human. As to conditions: CTO 8 hr and 24 hr; BEZ235 1 μM 24 hr. As for the experimental part:
as §1, with “Bioinformatic analysis was done to identify CTO induced gene expression changes.” left out

For the next series, the system named is RAS pathway. Briefly: Plucked hair assay, RAS pathway Signature Score. The format is cell-based, human. Particulars: different doses of CTO, 8 hr and 24 hr; most obvious at 8 hrs. As for the experimental part: as §1, with “Bioinformatic analysis was done to identify CTO induced gene expression changes.” left out
In series [4] the test system is Growth Factor Signature (GFS) pathway. Briefly: Plucked hair assay, Growth Factor Signature Score. The format is cell-based, human. As to conditions: different doses of CTO, 8 hr and 24 hr; most obvious at 8 hrs. Here is the method:
as §1, with “Bioinformatic analysis was done to identify CTO induced gene expression changes.” left out

Another series concerns MEK pathway. The experiment in a line: Plucked hair assay, MEK Signature Score. Particulars: all CTO treatments at 8 hrs and 24 hrs. The format is cell-based, human. As for the experimental part:
as §1, with “Bioinformatic analysis was done to identify CTO induced gene expression changes.” left out

The subject of the next series is HDAC pathway. The experiment in a line: Plucked hair assay, HDAC Signature Score. It counts as cell-based, human. Particulars: different doses of CTO, 8 hr and 24 hr. Here is the method: as §1, with “Bioinformatic analysis was done to identify CTO induced gene expression changes.” left out
A further series relates to NOTCH pathway. Briefly: Plucked hair assay, NOTCH Signature Score. Particulars: different doses of CTO, 8 hr and 24 hr. The format is cell-based, human. As for the experimental part:
as §1, with “Bioinformatic analysis was done to identify CTO induced gene expression changes.” left out

For another series, the system named is WNT β-catenin pathway. The experiment in a line: Plucked hair assay, WNT β-catenin Signature Score. It counts as cell-based, human. As to conditions: 24 hrs exposure to CTO. Here is the method: as §1, with “Bioinformatic analysis was done to identify CTO induced gene expression changes.” left out
Another series has as its system HSP90 pathway. The experiment in a line: Plucked hair assay, HSP90 Signature Score. The format is cell-based, human. As to conditions: different doses of CTO, 8 hr and 24 hr; dose dependent. As for the experimental part:
as §1, with “Bioinformatic analysis was done to identify CTO induced gene expression changes.” left out

The test system of the next series is EGFR pathway. The experiment in a line: Plucked hair assay, EGFR Signature Score. The format is cell-based, human. As to conditions: all doses of CTO and time points; Tarceva 1 μM 24 hr. As for the experimental part: as §1, with “Bioinformatic analysis was done to identify CTO induced gene expression changes.” left out
The next series has as its system P53 pathway. The experiment in a line: Plucked hair assay, P53 Signature Score. It counts as cell-based, human. Particulars: all doses of CTO, 8 hr and 24 hr. Here is the method:
as §1, with “Bioinformatic analysis was done to identify CTO induced gene expression changes.” left out

The subject of the next series is CAI IPA pathway. Briefly: Plucked hair assay, CAI IPA Signature Score. It counts as cell-based, human. Particulars: different doses of CTO, 8 hr and 24 hr; except at 10 μM. Here is the method: as §1, with “changes. […]” for “changes.”
For the next series, the system named is CAI Ex vivo pathway. Briefly: Plucked hair assay, CAI Ex vivo Signature Score. As to conditions: different doses of CTO, 8 hr and 24 hr; tissue specific direction of change. The format is cell-based, human. As for the experimental part:
as §1, with “changes. […]” for “changes.”

For series [5], the system named is non-voltage dependent calcium signaling genes. The experiment in a line: Plucked hair assay, non-voltage dependent calcium signaling Signature Score. The format is cell-based, human. Particulars: across CTO treatment; literature determined regulation and ANOVA determined set. Here is the method: as §1, with “changes. […]” for “changes.”
Series [6] concerns Canonical Calcium signaling. Briefly: Plucked hair assay, Canonical Calcium signaling Signature Score (KEGG and IPA). Particulars: KEGG Calcium Signaling Pathway and IPA predicted regulation. The format is cell-based, human. As for the experimental part:
Canonical calcium signaling was analyzed using the KEGG Calcium Signaling Pathway and IPA to predict regulation of canonical calcium signaling. […] Using ANOVA to filter for informative genes (FDR<0.05 & 1.5) it was noted that suppression of canonical calcium genes occurred across CTO treatment, however this only represented 7/68 canonical pathway genes.
as §1, with “changes. […]” for “changes.”

The subject of another series is Dystonin. Briefly: Plucked hair assay, Dystonin expression. The format is cell-based, human. Here is the method:
as §1

Another series concerns TGF-β signaling. Briefly: Plucked hair assay, TGF-β signaling. The format is cell-based, human. As for the experimental part: as §1
In series [7] the test system is cancer patients with different tumor types. The format is in vivo. As to conditions: CTO given alone. The text has this: Thus enormous efforts are directed to the development of molecular pharmacodynamics biomarkers of signaling outputs of CTO to design combinatorial regimens against molecular targets in different types of cancers. Current methods for assessing pathway activation in tumors involve the measurement of the drug targets, known oncogenes or known tumor suppressors. However, one pathway can be activated at multiple points so it is not feasible to assess pathway activation by evaluating just known cancer associated genes.

With `C#Cc1cccc(Nc2ncnc3cc(OCCOC)c(OCCOC)cc23)c1` [Tarceva®, erlotinib, reference compound], the EGR1 regulation entry in [1] is “suppressed”. Besides, in series [2], the CEACAM1 regulation result is recorded as “down regulated”. Moreover, the “transcriptional response (differential probes)” value in series [3] is recorded as “less differential probes than CTO or BEZ235”.

On to `Cn1c(=O)n(-c2ccc(C(C)(C)C#N)cc2)c2c3cc(-c4cnc5ccccc5c4)ccc3ncc21` [BEZ235, reference compound], for which the PI3K signature result with PI3K pathway is recorded as “Strong suppression”. The PI3K/mTOR signature entry in the series on PI3K/mTOR pathway is “Strong suppression”. Also, the EGR1 regulation result in series [1] is “suppressed”.

On to `NC(=O)c1nnn(Cc2cc(Cl)c(C(=O)c3ccc(Cl)cc3)c(Cl)c2)c1N.O=C(O)c1cc(=O)[nH]c(=O)[nH]1` [CTO, carboxyamidotriazole orotate], for which, in the series with RAS pathway, the RAS signature entry is “modest down regulation”. For the same molecule, in [4], the “Growth Factor signature (GFS)” value is on record as “modest down regulation”. Besides, in the series on MEK pathway, the MEKi signature entry was “strongly suppressed; also recorded: strong inhibition”. In addition, in the series with HDAC pathway, the HDAC signature result was “strongly suppressed; also recorded: weak suppression”. Besides, the Notch signature result with NOTCH pathway is on record as “no suppression; also recorded: no activity”. For the same molecule, in the series on WNT β-catenin pathway, the “WNT β-catenin signature” value is listed as “modes suppression; also recorded: inhibitory at 24 hr”. Also, the HSP90 signature entry in the series on HSP90 pathway was “strong suppression”. In addition, the EGFR signature entry with EGFR pathway is “strongly suppressed; also recorded: very strong suppression; also recorded: stronger than that in Tarceva® at all doses of CTO and time points”. The P53 signature entry in the series with P53 pathway was “stabilized; also recorded: induction; also recorded: induced”. The “CAI signature (IPA, 29 genes)” value with CAI IPA pathway is “some suppression”. Further, the “IPA CAI list, ex vivo 14 gene set” value in the series on CAI Ex vivo pathway is reported as “strong dose dependent suppression”. In addition, the “non-voltage dependent calcium genes signature” value in series [5] is reported as “strongly suppressed; also recorded: strong suppression”. In addition, the “canonical calcium signaling pathway signature” value in series [6] is “No significant suppression”. In [1] (varying doses of CTO at 8 hr and 24 hrs), the EGR1 up regulation is 6 fold. Moreover, the CEACAM1 regulation entry in series [2] was “down regulated”. For the same molecule, the Dystonin down regulation in the series with Dystonin is on record as 60 fold. Besides, in the series with TGF-β signaling, the TGF-β signaling entry was “inhibited”. Besides, the tumor response entry in [7] (cancer patients with different genomic mutations) is “stable disease or partial response showing tumor shrinkage”. The safety and tolerability result in series [7] (cancer patients, maximum tolerated dose not determined) is “safe and tolerable”. In addition, the “net result probes overlapping between the 8 hr and 24 hr lists” value in series [3] (442 unique annotated genes) is listed as 558. Also, the probes observed in [3] (8 hours) was 1440; in [3] (24 hrs), 2961. Further, in series [3], the “transcriptional response (differential probes)” value was “differential probes increased in a dose related manner; also recorded: greatest effect transcriptionally”. In addition, the “fold range of the overlapping probes” value in [3] (high dose CTO/24 hr) is −75 to +33 fold.
